Experimental data: ChEMBL document CHEMBL5316344, “Homologation of the Alkyl Side Chain of Antimitotic Phenyl 4-(2-Oxo-3-alkylimidazolidin-1-yl)benzenesulfonate Prodrugs Selectively Targeting CYP1A1-Expressing Breast Cancers Improves Their Stability in Rodent Liver Microsomes” (J Med Chem, 2023)
The source made the active and inactive calls. No cut-off for these calls is given here.

What was measured:
[1] = test system: MCF7; assay: Antiproliferative activity against human MCF7 cells expressing CYP1A1 assessed as cell growth inhibition incubated for 48 hrs by sulforhodamine B assay; assay type: functional, cell-based; conditions: MCF7, 48 h
[2] = test system: HT-29; assay: Antiproliferative activity against human HT-29 cells assessed as cell growth inhibition incubated for 48 hrs by sulforhodamine B assay; assay type: functional, cell-based; conditions: HT-29, 48 h
[3] = test system: M21; assay: Antiproliferative activity against human M21 cells assessed as cell growth inhibition incubated for 48 hrs by sulforhodamine B assay; assay type: functional, cell-based; conditions: M21, 48 h
[4] = Selectivity ratio, ratio of IC50 for antiproliferative activity against human HT-29 cells to IC50 for antiproliferative activity against human MCF7 cells expressing CYP1A1; assay type: functional
[5] = Selectivity ratio, ratio of IC50 for antiproliferative activity against human M21 cells to IC50 for antiproliferative activity against human MCF7 cells expressing CYP1A1; assay type: functional
[6] = Stability in human liver microsomes assessed as half life incubated for 60 mins by HPLC analysis; assay type: ADME, Microsome
[7] = Stability in mouse liver microsomes assessed as half life incubated for 60 mins by HPLC analysis; assay type: ADME, Microsome
[8] = Stability in rat liver microsomes assessed as half life incubated for 60 mins by HPLC analysis; assay type: ADME, Microsome
[9] = Stability in human liver microsomes assessed as intrinsic clearance incubated for 60 mins by HPLC analysis; assay type: ADME, Microsome; conditions: read-out: CLH
[10] = Stability in mouse liver microsomes assessed as intrinsic clearance incubated for 60 mins by HPLC analysis; assay type: ADME, Microsome; conditions: read-out: CLH
[11] = Stability in rat liver microsomes assessed as intrinsic clearance incubated for 60 mins by HPLC analysis; assay type: ADME, Microsome; conditions: read-out: CLH
[12] = biological target: T1, Cytochrome P450 1A1 (Homo sapiens, UniProt P04798); assay: Binding affinity to human CYP1A1 assessed as inhibition of conversion of 7-ethoicyresorufin into fluorescent resorufin by measuring inhibition constant preincubated for 5 mins followed by […] addition measured every minute for 15 mins by EROD assay; assay type: ADME
T1 sequence (P04798 whole entry): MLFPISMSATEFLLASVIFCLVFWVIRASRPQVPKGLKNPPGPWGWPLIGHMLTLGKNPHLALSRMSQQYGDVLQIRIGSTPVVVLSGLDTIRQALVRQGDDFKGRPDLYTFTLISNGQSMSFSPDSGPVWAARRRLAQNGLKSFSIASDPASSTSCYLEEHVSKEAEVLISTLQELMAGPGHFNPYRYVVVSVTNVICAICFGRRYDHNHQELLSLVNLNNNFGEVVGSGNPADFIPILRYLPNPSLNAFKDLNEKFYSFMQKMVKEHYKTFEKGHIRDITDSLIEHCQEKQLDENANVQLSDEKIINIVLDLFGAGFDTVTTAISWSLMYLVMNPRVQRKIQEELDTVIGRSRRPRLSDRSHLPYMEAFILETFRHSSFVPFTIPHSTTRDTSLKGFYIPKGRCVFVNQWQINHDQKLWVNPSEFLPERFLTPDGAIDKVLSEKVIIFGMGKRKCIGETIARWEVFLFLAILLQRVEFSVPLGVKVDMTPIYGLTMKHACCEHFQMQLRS

[13] = test system: HT-1080; assay: Antiproliferative activity against human HT-1080 cells expressing CYP1A1 assessed as cell growth inhibition incubated for 48 hrs by sulforhodamine B assay; assay type: functional, cell-based; conditions: HT-1080, 48 h
[14] = test system: HT-1080; assay: Antiproliferative activity against human HT-1080 cells transfected with empty vector assessed as cell growth inhibition incubated for 48 hrs by sulforhodamine B assay; assay type: functional, cell-based; conditions: HT-1080, 48 h
[15] = test system: HT-1080; assay: Antiproliferative activity against human HT-1080 cells assessed as cell growth inhibition incubated for 48 hrs by sulforhodamine B assay; assay type: functional, cell-based; conditions: HT-1080, 48 h
[16] = Selectivity ratio, ratio of IC50 for antiproliferative activity against human HT-1080 cells transfected with empty vector to IC50 for antiproliferative activity against human HT-1080 cells expressing CYP1A1; assay type: functional
[17] = Selectivity ratio, ratio of IC50 for antiproliferative activity against human HT-1080 cells to IC50 for antiproliferative activity against human HT-1080 cells expressing CYP1A1; assay type: functional
[18] = test system: MDA-MB-231; assay: Antiproliferative activity against ER/PR/HER2-negative human MDA-MB-231 cells assessed as cell growth inhibition incubated for 72 hrs by sulforhodamine B assay; assay type: functional, cell-based; conditions: MDA-MB-231, 72 h
[19] = test system: MDA-MB-468; assay: Antiproliferative activity against ER/PR/HER2-negative human MDA-MB-468 cells assessed as cell growth inhibition incubated for 72 hrs by sulforhodamine B assay; assay type: functional, cell-based; conditions: MDA-MB-468, 72 h
[20] = test system: T47D; assay: Antiproliferative activity against ER/PR-positive HER2-negative human T47D cells assessed as cell growth inhibition incubated for 72 hrs by sulforhodamine B assay; assay type: functional, cell-based
[21] = test system: SK-BR-3; assay: Antiproliferative activity against ER/PR-negative HER2-positive human SK-BR-3 cells assessed as cell growth inhibition incubated for 72 hrs by sulforhodamine B assay; assay type: functional, cell-based; conditions: SK-BR-3, 72 h
[22] = test system: MCF7; assay: Antiproliferative activity against […] human MCF7 cells assessed as cell growth inhibition incubated for 72 hrs by sulforhodamine B assay; assay type: functional, cell-based; conditions: MCF7, 72 h
[23] = Selectivity ratio, ratio of IC50 for antiproliferative activity against ER/PR/HER2-negative human MDA-MB-231 cells to IC50 for antiproliferative activity against ER/PR/HER2-negative human MDA-MB-468 cells; assay type: functional
[24] = Selectivity ratio, ratio of IC50 for antiproliferative activity against ER/PR/HER2-negative human MDA-MB-231 cells to IC50 for antiproliferative activity against ER/PR-positive HER2-negative human T47D cells; assay type: functional
[25] = Selectivity ratio, ratio of IC50 for antiproliferative activity against ER/PR/HER2-negative human MDA-MB-231 cells to IC50 for antiproliferative activity against ER/PR-negative HER2-positive human SK-BR-3 cells; assay type: functional
[26] = Selectivity ratio, ratio of IC50 for antiproliferative activity against ER/PR/HER2-negative human MDA-MB-231 cells to IC50 for antiproliferative activity against […] human MCF7 cells; assay type: functional
[27] = test system: MCF7; assay: Induction of cell cycle arrest in human MCF7 cells expressing CYP1A1 assessed as accumulation of cells at G2/M phase at 50 nM incubated for 48 hrs by DAPI staining based flow cytometric analysis (reference value: 16+/-2 %); assay type: functional
[28] = test system: MCF7; assay: Induction of cell cycle arrest in human MCF7 cells expressing CYP1A1 assessed as accumulation of cells at S phase at 50 nM incubated for 48 hrs by DAPI staining based flow cytometric analysis (reference value: 11+/-1 %); assay type: functional
[29] = test system: MCF7; assay: Induction of cell cycle arrest in human MCF7 cells expressing CYP1A1 assessed as accumulation of cells at G0/G1 phase at 50 nM incubated for 48 hrs by DAPI staining based flow cytometric analysis (reference value: 74+/-2 %); assay type: functional
[30] = biological target: T2, Tubulin (Homo sapiens) (UniProt P68371+Q9H4B7+P0DPH7+P68366+Q13509+Q71U36+P04350+Q3ZCM7+P07437+P68363+Q9BQE3+Q6PEY2+Q13885+Q9BVA1+Q9BUF5); assay: Disruption of microtubules in human MCF7 cells expressing CYP1A1 assessed as cytoskeleton disruption at 840 nM measured after 48 hrs by DAPI staining based fluorescence microscopic analysis; assay type: cell-based
[31] = test system: HT-1080; assay: Antitumor activity against human HT-1080 cells xenografted in chick embryo assessed as reduction in tumor wet weight at 1 ug, iv incubated for 17 days by CAM assay; assay type: functional; set-up: scale not given: the % may be the effect or the level left; conditions: dose 1 µg, time 17 day
[32] = test system: HT-1080; assay: Antitumor activity against human HT-1080 cells transfected with empty vector xenografted in chick embryo assessed as reduction in tumor wet weight at 1 ug, iv incubated for 17 days by CAM assay; assay type: functional; set-up: scale not given: the % may be the effect or the level left; conditions: dose 1 µg, time 17 day
[33] = test system: HT-1080; assay: Antitumor activity against human HT-1080 cells expressing CYP1A1 xenografted in chick embryo assessed as reduction in tumor wet weight at 1 ug, iv incubated for 17 days by CAM assay; assay type: functional; set-up: scale not given: the % may be the effect or the level left; conditions: dose 1 µg, time 17 day
[34] = Toxicity in chick embryo xenografted with human […] cells assessed as mortality at 1 ug, iv incubated for 17 days; assay type: organism-based, Gallus gallus; conditions: chicken, in vivo, 408 h, dose 1 µg, time 17 day
[35] = Toxicity in chick embryo xenografted with human […] cells transfected with empty vector assessed as mortality at 1 ug, iv incubated for 17 days; assay type: organism-based, Gallus gallus; conditions: chicken, in vivo, 408 h, dose 1 µg, time 17 day
[36] = Toxicity in chick embryo xenografted with human […] cells expressing CYP1A1 assessed as mortality at 1 ug, iv incubated for 17 days; assay type: organism-based, Gallus gallus; conditions: chicken, in vivo, 408 h, dose 1 µg, time 17 day
[37] = biological target: T1, Cytochrome P450 1A1; assay: Prodrug conversion assessed as human CYP1A1-mediated CEU-602 formation incubated for 15 mins in presence of NADPH by HPLC analysis; assay type: ADME; conditions: recombinant enzyme, 0.25 h
[38] = test system: MCF7; assay: Induction of cell cycle arrest in human MCF7 cells expressing CYP1A1 assessed as accumulation of cells at G2/M phase at 25 nM incubated for 48 hrs by DAPI staining based flow cytometric analysis (reference value: 16+/-2 %); assay type: functional
[39] = test system: MCF7; assay: Induction of cell cycle arrest in human MCF7 cells expressing CYP1A1 assessed as accumulation of cells at S phase at 25 nM incubated for 48 hrs by DAPI staining based flow cytometric analysis (reference value: 11+/-1 %); assay type: functional
[40] = test system: MCF7; assay: Induction of cell cycle arrest in human MCF7 cells expressing CYP1A1 assessed as accumulation of cells at G0/G1 phase at 25 nM incubated for 48 hrs by DAPI staining based flow cytometric analysis (reference value: 74+/-2 %); assay type: functional
[41] = biological target: T2, Tubulin (Homo sapiens); assay: Disruption of microtubules in human MCF7 cells expressing CYP1A1 assessed as cytoskeleton disruption at 15 nM measured after 48 hrs by DAPI staining based fluorescence microscopic analysis; assay type: cell-based

Compound | IC50 [1] | IC50 [2] | IC50 [3] | Ratio IC50 [4] | Ratio IC50 [5] | IC50 [18] | IC50 [19] | IC50 [20] | IC50 [21] | IC50 [22] | Ratio IC50 [23] | Ratio IC50 [24] | Ratio IC50 [25] | Ratio IC50 [26] | Activity [31] | Activity [32] | Activity [33] | Activity [34] | Activity [35] | Activity [36] | further results
CCCCCN1CCN(c2ccc(S(=O)(=O)Oc3cc(OC)c(OC)c(OC)c3)cc2)C1=O | 200 nM | > 12500 nM | > 12500 nM | >63 | >63 | 8600 nM | 21 nM | 1000 nM | 3.2 nM | 38 nM | 410 | 8.6 | 2700 | 230 | 82% | 93% | 62% | Non-Toxic | Non-Toxic | Non-Toxic | half-life [6]: 57 min; half-life [7]: 18.9 min; half-life [8]: 125 min; microsomal CLint [9]: 24.3 µL/min/mg; microsomal CLint [10]: 74 µL/min/mg; microsomal CLint [11]: 11.1 µL/min/mg; Ki [12]: 1400 nM; IC50 [13]: 30 nM; IC50 [14]: 5900 nM; IC50 [15]: 4440 nM; Ratio IC50 [16]: 197; Ratio IC50 [17]: 148; Activity [27]: 42%; Activity [28]: 14%; Activity [29]: 44%; Activity [30]: Active; Drug metabolism [37]: Metabolite_Detected
COc1cc(OS(=O)(=O)c2ccc(N3CCNC3=O)cc2)cc(OC)c1OC | 25 nM | 40 nM | 40 nM | 1.6 | 1.6 | 6.9 nM | 5.3 nM | 13 nM | 3 nM | 3.4 nM | 1.3 | 0.53 | 2.3 | 2 | 49% | 79% | 68% | Non-Toxic | Non-Toxic | Non-Toxic | Activity [38]: 63%; Activity [39]: 9%; Activity [40]: 28%; Activity [41]: Active
